Measurements: ChEMBL document CHEMBL4414667, “Uncarialins A-I, Monoterpenoid Indole Alkaloids from Uncaria rhynchophylla as Natural Agonists of the 5-HT1A Receptor” (J Nat Prod, 2019)

molecular target: T1, 5-hydroxytryptamine receptor 1A (Homo sapiens, UniProt P08908); test: Agonist activity at human 5HT1A receptor expressed in CHOK1 cells incubated for 16 hrs followed by forskolin-stimulation and measured after 2 hrs by dual-glo luciferase reporter gene assay; assay type: cell-based
T1 sequence (P08908 whole entry): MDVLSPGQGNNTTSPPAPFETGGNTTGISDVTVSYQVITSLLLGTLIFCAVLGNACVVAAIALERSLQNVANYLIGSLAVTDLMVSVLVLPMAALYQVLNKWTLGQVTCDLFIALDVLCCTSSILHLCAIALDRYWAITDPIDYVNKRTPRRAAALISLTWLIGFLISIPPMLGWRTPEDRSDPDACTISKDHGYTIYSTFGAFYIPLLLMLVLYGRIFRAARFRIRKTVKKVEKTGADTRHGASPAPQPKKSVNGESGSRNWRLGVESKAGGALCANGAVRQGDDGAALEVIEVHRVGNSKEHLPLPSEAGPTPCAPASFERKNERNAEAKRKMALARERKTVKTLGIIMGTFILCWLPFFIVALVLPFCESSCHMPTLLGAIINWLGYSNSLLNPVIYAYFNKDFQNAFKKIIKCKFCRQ

Row | SMILES | EC50 [µM]
1 | CC[C@H]1C[N@+]2([O-])CCc3c([nH]c4ccccc34)[C@H]2C[C@H]1/C(=C\OC)C(=O)OC | > 100
2 | CC[C@H]1C[N+]2([O-])CCc3c([nH]c4ccccc34)[C@H]2C[C@@H]1/C(=C\OC)C(=O)OC (stereo partly drawn) | > 100
3 | COC(=O)C1=CO[C@@H](C)[C@@H]2CN3CCc4c([nH]c5ccccc45)[C@@H]3C[C@H]12 [TETRAHYDROALSTONINE] | > 100
4 | CC[C@H]1CN2CCc3c([nH]c4ccccc34)[C@H]2C[C@H]1/C(=C\OC)C(=O)OC | > 100
5 | CC[C@H]1CN2CCc3c([nH]c4ccccc34)[C@H]2C[C@@H]1[C@@H](CO)C(=O)OC | 2.2
6 | CC[C@H]1CN2CCc3c([nH]c4ccccc34)[C@H]2C[C@@H]1[C@H](CO)C(=O)OC | > 100
7 | C=C[C@H]1C[N@@+]2([O-])CCc3c([nH]c4ccccc34)[C@H]2C[C@@H]1[C@@H](CO)C(=O)OC | > 500
8 | C=C[C@H]1CN2CC[C@]3(O)C(=Nc4ccccc43)[C@H]2C[C@@H]1/C(=C\OC)C(=O)OC | > 100
9 | C=C[C@H]1[C@H](O[C@@H]2O[C@H](CO)[C@@H](O)[C@H](O)[C@H]2O)OC=C2C(=O)N3CCc4c([nH]c5ccccc45)[C@@H]3C[C@H]21 | > 100
10 | C=C[C@H]1CN2CCc3c([nH]c4ccccc34)[C@@H]2C[C@@H]1/C(=C\OC)C(=O)OC | > 100
11 | C=C[C@H]1C[N@@+]2([O-])CCc3c([nH]c4ccccc34)[C@H]2C[C@@H]1/C(=C\OC)C(=O)OC | 85
12 | C=C[C@H]1CN2CCc3c([nH]c4ccccc34)[C@H]2C[C@@H]1[C@H](CO)C(=O)OC | 54.4
13 | CC[C@H]1CN2CC[C@@]3(C(=O)Nc4ccccc43)[C@@H]2C[C@@H]1/C(=C\OC)C(=O)OC [ISORHYNCHOPHYLLINE] | 2
14 | C/C=C1\CN2CCc3c([nH]c4ccccc34)[C@H]2C[C@@H]1/C(=C\OC)C(=O)OC | > 100
15 | C=C[C@H]1CN2CC[C@@]3(C(=O)Nc4ccccc43)[C@@H]2C[C@@H]1/C(=C\OC)C(=O)OC [ISOCORYNOXEINE] | > 100
16 | COC(=O)C1=CO[C@@H](O[C@@H]2O[C@H](CO)[C@@H](O)[C@H](O)[C@H]2O)[C@H]2[C@@H]1C[C@H]1c3[nH]c4ccccc4c3CCN1C[C@@H]2O | 1.6
17 | C=C[C@H]1CN2CCc3c([nH]c4ccccc34)[C@H]2C[C@@H]1[C@@H](CO)C(=O)OC | 0.1
18 | C/C=C1\C[N@@+]2([O-])CCc3c([nH]c4ccccc34)[C@@H]2C[C@@H]1[C@H](CO)C(=O)OC | 11.4
19 | C/C=C1/C[N+]2([O-])CCc3c([nH]c4ccccc34)[C@@H]2C[C@@H]1/C(=C\OC)C(=O)OC (stereo partly drawn) | > 100
20 | CC[C@H]1CN2CC[C@]3(C(=O)Nc4ccccc43)[C@@H]2C[C@@H]1/C(=C\OC)C(=O)OC [RHYNCHOPHYLLINE] | 10.3
21 | C=C[C@H]1[C@H](O[C@@H]2O[C@H](CO)[C@@H](O)[C@H](O)[C@H]2O)OC=C2C(=O)N3CCc4c([nH]c5ccccc45)[C@H]3C[C@H]21 | > 100
22 | COC(=O)C1=CO[C@@H](O[C@@H]2O[C@H](CO)[C@@H](O)[C@H](O)[C@H]2O)[C@@H]2[C@@H]3CN4CCc5c([nH]c6ccccc56)[C@]4(C[C@H]12)O3 | 10.2
23 | C=C[C@H]1CN2CC[C@]3(O[C@@H]2C[C@@H]1/C(=C\OC)C(=O)OC)C(=O)Nc1ccccc13 | 10.1
